The source made the active and inactive calls. No cut-off for these calls is given here.
Assays:
Escherichia coli [1] = assay: Antibacterial activity against Escherichia coli SBS 363 after 18 hrs by liquid growth inhibition assay; format: functional; conditions: SBS 363, 18 h, read-out: MIC100
Pseudomonas aeruginosa [2] = assay: Antibacterial activity against Pseudomonas aeruginosa ATCC 27853 after 18 hrs by liquid growth inhibition assay; format: functional; conditions: ATCC 27853, 18 h, read-out: MIC100
Serratia marcescens = assay: Antibacterial activity against Serratia marcescens ATCC 4112 after 18 hrs by liquid growth inhibition assay; format: functional; conditions: ATCC 4112, 18 h, read-out: MIC100
Escherichia coli [3] = assay: Antibacterial activity against Escherichia coli D31 after 18 hrs by liquid growth inhibition assay; format: functional; conditions: D31, 18 h, read-out: MIC100
Enterobacter cloacae [4] = assay: Antibacterial activity against Enterobacter cloacae beta-12 after 18 hrs by liquid growth inhibition assay; format: functional; conditions: beta-12, 18 h, read-out: MIC100
Micrococcus luteus = assay: Antibacterial activity against Micrococcus luteus A270 after 18 hrs by liquid growth inhibition assay; format: functional; conditions: A270, 18 h, read-out: MIC100
Staphylococcus aureus [5] = assay: Antibacterial activity against Staphylococcus aureus ATCC 29213 after 18 hrs by liquid growth inhibition assay; format: functional; conditions: ATCC 29213, 18 h, read-out: MIC100
Bacillus spizizenii [6] = assay: Antibacterial activity against Bacillus subtilis ATCC 6633 after 18 hrs by liquid growth inhibition assay; format: functional; conditions: ATCC 6633, 18 h, read-out: MIC100
[7] = test system: Staphylococcus epidermidis; assay: Antibacterial activity against Staphylococcus epidermidis ATCC 12228 after 18 hrs by liquid growth inhibition assay; format: functional; conditions: ATCC 12228, 18 h, read-out: MIC100
Candida albicans = assay: Antifungal activity against Candida albicans MDM8 after 18 hrs by liquid growth inhibition assay; format: functional; conditions: MDM8, 18 h, read-out: MIC100
Candida tropicalis = assay: Antifungal activity against Candida tropicalis IOC 4560 after 18 hrs by liquid growth inhibition assay; format: functional; conditions: IOC 4560, 18 h, read-out: MIC100
Candida parapsilosis [8] = assay: Antifungal activity against Candida parapsilosis IOC 4564 after 18 hrs by liquid growth inhibition assay; format: functional; conditions: Lodderomyces parapsilosis, IOC 4564, 18 h; read-out: MIC100
Aspergillus niger [9] = assay: Antifungal activity against Aspergillus niger after 72 hrs by liquid growth inhibition assay; format: functional; conditions: read-out: MIC100
Cladosporium herbarum [10] = assay: Antifungal activity against Cladosporium herbarum after 72 hrs by liquid growth inhibition assay; format: functional; conditions: read-out: MIC100
Cryptococcus neoformans = assay: Antifungal activity against Cryptococcus neoformans after 18 hrs by liquid growth inhibition assay; format: functional; conditions: read-out: MIC100
Erythrocyte = assay: Hemolytic activity in human erythrocytes after 1 hr; format: ADME, cell-based
Staphylococcus aureus [11] = assay: Antibacterial activity against Staphylococcus aureus ATCC 25923 measured every 4 hrs by broth micro-dilution method; format: functional; conditions: ATCC 25923, 4 h
Bacillus spizizenii [12] = assay: Antibacterial activity against Bacillus subtilis ATCC 6633 measured every 4 hrs by broth micro-dilution method; format: functional; conditions: ATCC 6633, 4 h
Escherichia coli [13] = assay: Antibacterial activity against Escherichia coli ATCC 25922 measured every 4 hrs by broth micro-dilution method; format: functional; conditions: ATCC 25922, 4 h
Pseudomonas aeruginosa [14] = assay: Antibacterial activity against Pseudomonas aeruginosa ATCC 9027 measured every 4 hrs by broth micro-dilution method; format: functional; conditions: ATCC 9027, 4 h
Escherichia coli [15] = assay: Antibacterial activity against Escherichia coli SBS 363 up to 50 umol/L after 18 hrs by liquid growth inhibition assay; format: functional
Enterobacter cloacae [16] = assay: Antibacterial activity against Enterobacter cloacae beta-12 up to 50 umol/L after 18 hrs by liquid growth inhibition assay; format: functional
Bacillus spizizenii [17] = assay: Antibacterial activity against Bacillus subtilis ATCC 6633 up to 50 umol/L after 18 hrs by liquid growth inhibition assay; format: functional
Candida parapsilosis [18] = assay: Antifungal activity against Candida parapsilosis IOC 4564 up to 50 umol/L after 18 hrs by liquid growth inhibition assay; format: functional
Aspergillus niger [19] = assay: Antifungal activity against Aspergillus niger up to 50 umol/L after 72 hrs by liquid growth inhibition assay; format: functional
Cladosporium herbarum [20] = assay: Antifungal activity against Cladosporium herbarum up to 50 umol/L after 72 hrs by liquid growth inhibition assay; format: functional

MIC (Escherichia coli [1]) [µM] | MIC (Pseudomonas aeruginosa [2]) [µM] | MIC (Serratia marcescens) [µM] | MIC (Escherichia coli [3]) [µM] | MIC (Enterobacter cloacae [4]) [µM] | MIC (Micrococcus luteus) [µM] | MIC (Staphylococcus aureus [5]) [µM] | MIC (Bacillus spizizenii [6]) [µM] | MIC [7] [µM] | MIC (Candida albicans) [µM] | MIC (Candida tropicalis) [µM] | MIC (Candida parapsilosis [8]) [µM] | MIC (Aspergillus niger [9]) [µM] | MIC (Cladosporium herbarum [10]) [µM] | MIC (Cryptococcus neoformans) [µM] | Substance | MHC (Erythrocyte) [µmol/L] | other results
12.5 | 0.78 | 1.56 | 12.5 | 25 | 1.56 | 6.25 | 12.5 | 6.25 | 12.5 | 12.5 | 50 | 25 | 25 | 6.25 | H-FLGALWEVAKSVF-NH2 | 1.6 | 
1.56 | 0.39 | 0.78 | 1.56 | 6.25 | 1.56 | 1.56 | 3.12 | 1.56 | 1.56 | 1.56 | 1.56 | 6.25 | 12.5 | 1.56 | H-FLGALWKVAKSVF-NH2 | 1.6 | 
1.56 | 0.39 | 0.78 | 1.56 | 6.25 | 1.56 | 1.56 | 6.25 | 1.56 | 1.56 | 3.12 | 6.25 | 6.25 | 6.25 | 1.56 | H-FLGALWNVAKKVF-NH2 | 1.6 | 
 | 0.78 | 1.56 | 3.12 | 25 | 1.56 | 3.12 | 25 | 3.12 | 12.5 | 6.25 | 25 | 25 | 50 | 3.12 | H-FLGALWNVAKSVF-NH2 | 6.25 | MIC (Staphylococcus aureus [11]): 10 µM; MIC (Bacillus spizizenii [12]): 20 µM; MIC (Escherichia coli [13]): 25 µM; MIC (Pseudomonas aeruginosa [14]): 10 µM
1.56 | 0.78 | 1.56 | 1.56 | 6.25 | 1.56 | 1.56 | 6.25 | 3.12 | 1.56 | 6.25 | 50 | 50 | 50 | 3.12 | H-FLGALWNVWKSVF-NH2 | 1.6 | 
 | 3.12 | 3.12 | 50 |  | 25 | 50 |  | 50 | 50 | 12.5 |  |  |  | 12.5 | H-FLGELWNVAKSVF-NH2 | 25 | growth inhibition (GI) (Escherichia coli [15]): inactive; growth inhibition (GI) (Enterobacter cloacae [16]): inactive; growth inhibition (GI) (Bacillus spizizenii [17]): inactive; growth inhibition (GI) (Candida parapsilosis [18]): inactive; growth inhibition (GI) (Aspergillus niger [19]): inactive; growth inhibition (GI) (Cladosporium herbarum [20]): inactive
12.5 | 3.12 | 3.12 | 6.25 | 50 | 3.12 | 12.5 | 12.5 | 6.25 | 6.25 | 12.5 |  |  |  | 6.25 | H-FLGELWNVWKSVF-NH2 | 1.6 | growth inhibition (GI) (Candida parapsilosis [18]): inactive; growth inhibition (GI) (Aspergillus niger [19]): inactive; growth inhibition (GI) (Cladosporium herbarum [20]): inactive
1.56 | 0.78 | 1.56 | 1.56 | 6.25 | 0.78 | 3.12 | 6.25 | 3.12 | 3.12 | 3.12 | 6.25 | 12.5 | 25 | 3.12 | H-FLKALWNVAKSVF-NH2 | 1.6 | 

— ChEMBL document CHEMBL4002571, “Novel designed VmCT1 analogs with increased antimicrobial activity” (Eur J Med Chem, 2017)
